Series [1] deals with Grb14 recruitment to the insulin receptor. The format is cell-based. To be noted: co-immunoprecipitation, data not shown.
Another series deals with T1, Grb14 RA-PH K252A (Homo sapiens, UniProt Q14449, K252A).
T1 sequence (Q14449 106-356 K252A limits assumed): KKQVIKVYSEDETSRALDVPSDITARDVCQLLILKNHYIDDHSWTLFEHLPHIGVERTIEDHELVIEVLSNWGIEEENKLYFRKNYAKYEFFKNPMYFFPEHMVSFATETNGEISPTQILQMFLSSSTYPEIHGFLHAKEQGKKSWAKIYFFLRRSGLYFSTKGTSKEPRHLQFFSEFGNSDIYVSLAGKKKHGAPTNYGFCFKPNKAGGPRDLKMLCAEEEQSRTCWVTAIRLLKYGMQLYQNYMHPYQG
The experiment in a line: Fluorescence-polarization phosphoinositide binding, Grb14 RA-PH K252A. The following applies: Grb14 K252A vs WT.

The series “crystal structure” concerns the molecule itself. The experiment in a line: crystal structure.

As to `COC[C@H]1OC(=O)c2coc3c2[C@@]1(C)C1=C(C3=O)[C@@H]2CCC(=O)[C@@]2(C)C[C@H]1OC(C)=O` [wortmannin], the “effect on recruitment of Grb14 to the insulin receptor” value in series [1] is “PI-3K activity is not required for Grb14 recruitment to the receptor”. Consider `CCCCCC(=O)O[C@H](COC(=O)CCCCCNC(=O)CCC1=C(C)C2=Cc3ccc(-c4ccc(OC)cc4)n3[B-](F)(F)[N+]2=C1C)COP(=O)(O)O[C@H]1[C@H](O)[C@@H](OP(=O)(O)O)[C@H](OP(=O)(O)O)[C@@H](OP(=O)(O)O)[C@H]1O` [345P3, PI(3,4,5)P3], for which the “decrease in binding affinity relative to wild-type” value on Grb14 RA-PH K252A was “more than three”.

B1: Grb10 RA-PH (residues 106-357 of human Grb10 isoform c (domain or fragment)
chain: GSHMAAAKQDVKVFSEDGTSKVVEILADMTARDLCQLLVYKSHSVDDNSWTLVEHHPHLGLERCLEDHELVVQVESTMASESKFLFRKNYAKYEFFKNPMNFFPEQMVTWSQQSNGSQTQLLQNFLNSSSSPEIQGFLHVKELGKKSWKKLYVCLRRSGLYCSTKGTSAAPRHLQLLADLEDSNIFSLIAGRKQYNAPTDHGLCIKPNKVRNETKELRLLCAEDEQTRTSWMTAFRLLKYGMLLYQNYRIPQQRKA
With B1, the binding result in “crystal structure” is reported as “binds”.
